Test results published in PMC7827406, “Structure–Activity Relationship (SAR) Study of Spautin-1 to Entail the Discovery of Novel NEK4 Inhibitors” (International Journal of Molecular Sciences, 2021).
Read-outs that look alike come from different tables or passages of the source.

Assays:
Assay in all cases: biochemical
Set-up in all cases: Eurofins KinaseProfiler full panel at Km ATP, residual kinase activity (%) relative to DMSO
PAK5(h) = PAK5(h) (Homo sapiens, UniProt Q9P286)
In short: (§1)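 Two 10 µM single-concentration screens were run: a competition-binding screen, in which DNA-tagged kinase bound to immobilized ligands was quantified by qPCR, and a radiometric activity panel at Km ATP. Each is expressed as residual kinase activity (%).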

IKKα(h) = target: T1, IKKα(h) (Homo sapiens, UniProt O15111)
T1 construct: gene CHUK
T1 sequence (O15111 1-745): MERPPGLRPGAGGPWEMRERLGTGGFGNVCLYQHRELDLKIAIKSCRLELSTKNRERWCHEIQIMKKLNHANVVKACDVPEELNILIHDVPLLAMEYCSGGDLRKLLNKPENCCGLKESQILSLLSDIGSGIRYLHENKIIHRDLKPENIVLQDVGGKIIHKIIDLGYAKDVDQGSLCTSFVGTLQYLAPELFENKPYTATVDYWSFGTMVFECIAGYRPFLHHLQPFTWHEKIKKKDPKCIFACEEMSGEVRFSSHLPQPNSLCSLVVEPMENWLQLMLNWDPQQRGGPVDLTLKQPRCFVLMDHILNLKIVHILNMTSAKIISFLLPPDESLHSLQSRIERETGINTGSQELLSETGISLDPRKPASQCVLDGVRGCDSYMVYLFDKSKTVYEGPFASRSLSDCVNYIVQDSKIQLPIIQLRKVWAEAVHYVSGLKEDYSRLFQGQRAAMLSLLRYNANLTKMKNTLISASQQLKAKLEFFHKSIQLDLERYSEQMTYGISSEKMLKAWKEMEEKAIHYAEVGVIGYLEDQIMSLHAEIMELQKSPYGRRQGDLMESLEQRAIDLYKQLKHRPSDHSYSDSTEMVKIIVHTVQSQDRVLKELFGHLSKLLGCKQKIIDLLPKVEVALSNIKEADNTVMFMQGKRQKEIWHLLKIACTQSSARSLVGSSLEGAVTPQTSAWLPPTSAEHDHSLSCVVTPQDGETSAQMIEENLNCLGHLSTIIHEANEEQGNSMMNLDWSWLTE
In short: as §1

CK1α(h) = target: T2, CK1α(h) (Homo sapiens, UniProt P48729)
T2 construct: gene CSNK1A1
T2 sequence (P48729 whole entry): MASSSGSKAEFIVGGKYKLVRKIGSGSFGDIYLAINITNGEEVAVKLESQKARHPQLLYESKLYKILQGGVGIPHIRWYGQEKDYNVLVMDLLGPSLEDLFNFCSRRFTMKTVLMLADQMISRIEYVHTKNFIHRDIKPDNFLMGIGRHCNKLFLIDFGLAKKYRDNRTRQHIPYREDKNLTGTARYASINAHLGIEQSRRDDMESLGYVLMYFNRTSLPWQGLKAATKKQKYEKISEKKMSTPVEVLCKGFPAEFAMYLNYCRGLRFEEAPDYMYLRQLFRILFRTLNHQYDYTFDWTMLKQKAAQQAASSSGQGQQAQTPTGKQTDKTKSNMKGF
In short: as §1

ChaK1(h) = target: T3, ChaK1(h) (Homo sapiens, UniProt Q96QT4)
T3 construct: gene TRPM7
T3 sequence (Q96QT4 whole entry): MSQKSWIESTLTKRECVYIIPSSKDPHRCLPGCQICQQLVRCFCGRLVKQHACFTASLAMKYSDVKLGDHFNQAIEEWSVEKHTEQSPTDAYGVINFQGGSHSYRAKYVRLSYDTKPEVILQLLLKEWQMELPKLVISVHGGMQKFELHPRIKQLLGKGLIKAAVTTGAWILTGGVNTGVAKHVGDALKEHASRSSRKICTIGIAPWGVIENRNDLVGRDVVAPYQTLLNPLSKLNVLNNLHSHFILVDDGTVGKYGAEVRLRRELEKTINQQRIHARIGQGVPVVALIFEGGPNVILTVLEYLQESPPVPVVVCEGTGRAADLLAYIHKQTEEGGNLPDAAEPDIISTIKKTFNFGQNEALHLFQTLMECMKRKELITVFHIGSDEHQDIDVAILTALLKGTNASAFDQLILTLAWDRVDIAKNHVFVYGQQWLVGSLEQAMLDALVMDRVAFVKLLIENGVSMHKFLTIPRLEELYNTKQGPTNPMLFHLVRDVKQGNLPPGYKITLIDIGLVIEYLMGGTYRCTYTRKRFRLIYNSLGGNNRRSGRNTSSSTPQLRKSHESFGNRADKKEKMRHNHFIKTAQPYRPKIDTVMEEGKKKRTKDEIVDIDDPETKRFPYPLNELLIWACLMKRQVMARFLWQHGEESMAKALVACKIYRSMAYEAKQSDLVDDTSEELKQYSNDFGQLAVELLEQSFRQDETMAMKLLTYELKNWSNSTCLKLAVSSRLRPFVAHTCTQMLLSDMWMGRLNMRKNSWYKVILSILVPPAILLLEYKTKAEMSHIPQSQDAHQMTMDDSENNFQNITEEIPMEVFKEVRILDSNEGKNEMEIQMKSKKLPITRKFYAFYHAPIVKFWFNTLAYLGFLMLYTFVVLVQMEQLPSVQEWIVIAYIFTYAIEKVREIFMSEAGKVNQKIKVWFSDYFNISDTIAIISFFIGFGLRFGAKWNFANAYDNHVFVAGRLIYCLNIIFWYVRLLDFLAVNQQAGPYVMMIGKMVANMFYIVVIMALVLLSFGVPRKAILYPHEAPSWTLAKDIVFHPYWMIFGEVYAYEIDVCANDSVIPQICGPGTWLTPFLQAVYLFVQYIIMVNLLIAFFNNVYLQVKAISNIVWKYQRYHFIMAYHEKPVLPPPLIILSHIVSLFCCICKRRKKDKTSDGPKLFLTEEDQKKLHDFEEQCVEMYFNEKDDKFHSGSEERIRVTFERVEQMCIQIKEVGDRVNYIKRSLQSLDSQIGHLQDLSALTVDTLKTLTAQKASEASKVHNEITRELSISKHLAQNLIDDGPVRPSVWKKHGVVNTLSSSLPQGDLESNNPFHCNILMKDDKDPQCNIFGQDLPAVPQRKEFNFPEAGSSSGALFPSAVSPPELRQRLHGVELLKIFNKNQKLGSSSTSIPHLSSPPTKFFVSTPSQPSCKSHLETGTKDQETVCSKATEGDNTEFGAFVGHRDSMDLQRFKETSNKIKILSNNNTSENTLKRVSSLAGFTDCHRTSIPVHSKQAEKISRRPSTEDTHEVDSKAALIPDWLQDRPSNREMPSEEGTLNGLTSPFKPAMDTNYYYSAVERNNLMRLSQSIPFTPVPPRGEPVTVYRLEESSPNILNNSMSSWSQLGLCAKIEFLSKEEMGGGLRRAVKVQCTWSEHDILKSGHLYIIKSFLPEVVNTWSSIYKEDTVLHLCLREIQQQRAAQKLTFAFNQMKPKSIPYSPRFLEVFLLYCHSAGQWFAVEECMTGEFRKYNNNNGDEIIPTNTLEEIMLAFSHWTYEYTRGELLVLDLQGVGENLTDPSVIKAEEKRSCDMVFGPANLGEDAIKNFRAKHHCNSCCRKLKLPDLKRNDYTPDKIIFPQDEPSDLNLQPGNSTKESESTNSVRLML
In short: as §1

CaMKIIδ(h) = target: T4, CaMKIIδ(h) (Homo sapiens, UniProt Q13557)
T4 construct: gene CAMK2D
In short: as §1

ULK2(h) = target: T5, ULK2(h) (Homo sapiens, UniProt Q8IYT8)
T5 sequence (Q8IYT8 1-1036): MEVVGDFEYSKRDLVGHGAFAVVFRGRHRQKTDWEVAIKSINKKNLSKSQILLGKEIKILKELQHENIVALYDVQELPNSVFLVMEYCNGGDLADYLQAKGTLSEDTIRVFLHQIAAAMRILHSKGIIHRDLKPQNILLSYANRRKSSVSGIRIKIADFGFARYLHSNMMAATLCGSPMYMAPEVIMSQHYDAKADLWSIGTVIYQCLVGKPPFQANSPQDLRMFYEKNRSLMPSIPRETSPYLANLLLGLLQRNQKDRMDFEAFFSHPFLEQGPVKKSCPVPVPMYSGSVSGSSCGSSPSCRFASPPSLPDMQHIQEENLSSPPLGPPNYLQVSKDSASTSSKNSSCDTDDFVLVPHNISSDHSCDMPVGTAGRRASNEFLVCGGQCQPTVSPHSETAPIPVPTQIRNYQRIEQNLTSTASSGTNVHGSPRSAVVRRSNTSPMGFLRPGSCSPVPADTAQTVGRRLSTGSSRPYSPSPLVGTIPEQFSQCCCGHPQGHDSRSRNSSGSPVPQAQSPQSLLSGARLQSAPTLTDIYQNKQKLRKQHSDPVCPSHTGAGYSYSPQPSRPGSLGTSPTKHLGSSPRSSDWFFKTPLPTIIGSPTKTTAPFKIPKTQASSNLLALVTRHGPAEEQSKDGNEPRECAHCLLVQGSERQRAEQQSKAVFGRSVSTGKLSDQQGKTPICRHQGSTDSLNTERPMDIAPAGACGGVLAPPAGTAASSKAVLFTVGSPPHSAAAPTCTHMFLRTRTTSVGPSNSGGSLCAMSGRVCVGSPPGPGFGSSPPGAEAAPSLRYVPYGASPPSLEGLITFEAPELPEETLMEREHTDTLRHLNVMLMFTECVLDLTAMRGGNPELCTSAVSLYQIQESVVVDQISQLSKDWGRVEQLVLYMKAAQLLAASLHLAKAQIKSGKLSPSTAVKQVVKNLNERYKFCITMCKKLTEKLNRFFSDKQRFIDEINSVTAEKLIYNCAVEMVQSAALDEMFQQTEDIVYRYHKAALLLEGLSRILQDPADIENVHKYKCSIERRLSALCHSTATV
In short: as §1

PRK1(h) = target: T6, PRK1(h) (Homo sapiens, UniProt Q16512)
T6 construct: gene PKN1
T6 sequence (Q16512 whole entry): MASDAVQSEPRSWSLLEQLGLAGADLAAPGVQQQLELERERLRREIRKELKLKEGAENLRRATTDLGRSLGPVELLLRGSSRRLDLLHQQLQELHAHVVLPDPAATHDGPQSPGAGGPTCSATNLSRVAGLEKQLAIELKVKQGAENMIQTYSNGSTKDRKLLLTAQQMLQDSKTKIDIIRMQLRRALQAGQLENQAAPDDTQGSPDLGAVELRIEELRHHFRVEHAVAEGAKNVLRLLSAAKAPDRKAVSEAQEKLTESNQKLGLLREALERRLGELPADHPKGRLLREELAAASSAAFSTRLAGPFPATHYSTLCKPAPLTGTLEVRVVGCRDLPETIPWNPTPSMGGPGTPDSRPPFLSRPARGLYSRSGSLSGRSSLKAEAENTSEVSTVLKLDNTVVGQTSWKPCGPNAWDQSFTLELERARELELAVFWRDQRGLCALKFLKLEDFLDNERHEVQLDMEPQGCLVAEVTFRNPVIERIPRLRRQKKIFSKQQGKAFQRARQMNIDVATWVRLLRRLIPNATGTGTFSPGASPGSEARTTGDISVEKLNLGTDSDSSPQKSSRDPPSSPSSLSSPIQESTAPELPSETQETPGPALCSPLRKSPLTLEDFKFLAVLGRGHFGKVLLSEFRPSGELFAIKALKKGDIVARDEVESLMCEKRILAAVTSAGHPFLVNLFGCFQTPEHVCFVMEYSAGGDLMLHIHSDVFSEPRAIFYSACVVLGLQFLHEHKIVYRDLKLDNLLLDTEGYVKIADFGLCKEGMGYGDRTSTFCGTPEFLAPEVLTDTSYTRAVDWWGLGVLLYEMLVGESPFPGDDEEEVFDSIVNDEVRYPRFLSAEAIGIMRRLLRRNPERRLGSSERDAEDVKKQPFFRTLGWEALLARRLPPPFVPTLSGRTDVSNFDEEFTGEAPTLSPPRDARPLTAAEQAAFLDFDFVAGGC
In short: as §1

Fms(h) = target: T7, Fms(h) (Homo sapiens, UniProt P07333)
T7 construct: gene CSF1R
T7 sequence (P07333 whole entry): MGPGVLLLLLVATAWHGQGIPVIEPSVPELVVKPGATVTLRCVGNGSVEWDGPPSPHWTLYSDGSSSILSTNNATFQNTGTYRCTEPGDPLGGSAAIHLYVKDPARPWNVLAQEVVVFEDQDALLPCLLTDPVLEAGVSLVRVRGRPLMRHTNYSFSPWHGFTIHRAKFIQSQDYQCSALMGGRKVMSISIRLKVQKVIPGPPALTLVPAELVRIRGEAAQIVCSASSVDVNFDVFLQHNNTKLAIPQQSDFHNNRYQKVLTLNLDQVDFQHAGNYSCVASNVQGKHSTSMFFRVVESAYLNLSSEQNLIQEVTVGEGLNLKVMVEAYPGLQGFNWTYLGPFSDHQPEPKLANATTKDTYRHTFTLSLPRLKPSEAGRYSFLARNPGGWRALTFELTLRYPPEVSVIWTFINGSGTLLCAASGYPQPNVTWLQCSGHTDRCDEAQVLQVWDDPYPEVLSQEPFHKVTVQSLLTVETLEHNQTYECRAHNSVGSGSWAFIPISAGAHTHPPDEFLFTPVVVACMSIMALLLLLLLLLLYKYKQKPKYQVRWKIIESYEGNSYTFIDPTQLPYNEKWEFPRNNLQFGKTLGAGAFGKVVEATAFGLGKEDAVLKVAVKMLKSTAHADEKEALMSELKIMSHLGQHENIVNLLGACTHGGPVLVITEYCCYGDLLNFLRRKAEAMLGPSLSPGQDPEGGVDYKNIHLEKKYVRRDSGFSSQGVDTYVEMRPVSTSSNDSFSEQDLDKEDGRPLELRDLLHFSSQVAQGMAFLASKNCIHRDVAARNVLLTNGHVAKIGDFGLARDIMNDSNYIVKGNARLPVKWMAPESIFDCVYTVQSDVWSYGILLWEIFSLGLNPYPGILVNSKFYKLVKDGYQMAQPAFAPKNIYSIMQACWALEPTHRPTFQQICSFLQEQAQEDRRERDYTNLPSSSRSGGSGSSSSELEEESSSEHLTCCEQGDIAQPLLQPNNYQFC
In short: as §1

[1] = read-out: Residual activity (%) 5ay
[2] = read-out: Residual activity (%) Spautin-1 5aa
[3] = read-out: Residual activity (%) 5at
[4] = read-out: Residual activity (%) 5as

Chain of PAK5(h) (Q9P286 whole entry): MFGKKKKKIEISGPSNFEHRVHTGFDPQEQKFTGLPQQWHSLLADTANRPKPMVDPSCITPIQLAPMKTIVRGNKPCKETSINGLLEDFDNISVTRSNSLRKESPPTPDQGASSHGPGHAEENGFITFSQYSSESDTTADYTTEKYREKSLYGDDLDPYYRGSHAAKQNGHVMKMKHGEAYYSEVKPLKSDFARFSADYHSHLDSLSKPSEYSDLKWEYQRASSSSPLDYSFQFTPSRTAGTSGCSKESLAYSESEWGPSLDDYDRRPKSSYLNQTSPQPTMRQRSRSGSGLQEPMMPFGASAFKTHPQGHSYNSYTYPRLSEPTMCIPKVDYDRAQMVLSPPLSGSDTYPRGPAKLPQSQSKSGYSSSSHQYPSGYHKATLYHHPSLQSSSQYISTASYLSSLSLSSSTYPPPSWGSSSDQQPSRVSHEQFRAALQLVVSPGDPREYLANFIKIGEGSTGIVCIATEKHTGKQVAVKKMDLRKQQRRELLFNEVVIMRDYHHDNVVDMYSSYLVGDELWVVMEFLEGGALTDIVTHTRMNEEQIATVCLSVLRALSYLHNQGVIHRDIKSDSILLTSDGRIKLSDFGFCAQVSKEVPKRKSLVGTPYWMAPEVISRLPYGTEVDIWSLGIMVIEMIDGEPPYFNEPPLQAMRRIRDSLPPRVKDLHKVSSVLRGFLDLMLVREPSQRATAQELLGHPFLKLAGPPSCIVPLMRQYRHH

In the case of COc1ccc2ncnc(Nc3cccc(F)c3)c2c1 [5ay, N-(3-Fluorophenyl)-6-Methoxy-4-Quinazolinamine], the remaining activity at 10 µM (PAK5(h); [1]) is reported as 83%, the remaining activity at 10 µM (IKKα(h); [1]) is reported as 86% and the remaining activity at 10 µM (CK1α(h); [1]) is reported as 100%. The remaining activity at 10 µM (ChaK1(h); [1]) was 77%, the remaining activity at 10 µM (CaMKIIδ(h); [1]) was 41% and the remaining activity at 10 µM (ULK2(h); [1]) was 97%. For the same molecule, the remaining activity at 10 µM (PRK1(h); [1]) was 77% and the remaining activity at 10 µM (Fms(h); [1]) was 90%.

In the case of Fc1ccc(CNc2ncnc3ccc(F)cc23)cc1 [5aa, 6-Fluoro-N-(4-fluorobenzyl)-4-Quinazolinamine], the remaining activity at 10 µM (PAK5(h); [2]) is reported as 95%, the remaining activity at 10 µM (IKKα(h); [2]) is reported as 72% and the remaining activity at 10 µM (CK1α(h); [2]) is reported as 76%. For the same molecule, the remaining activity at 10 µM (ChaK1(h); [2]) was 86%, the remaining activity at 10 µM (CaMKIIδ(h); [2]) was 90% and the remaining activity at 10 µM (ULK2(h); [2]) was 101%. The remaining activity at 10 µM (PRK1(h); [2]) was 89% and the remaining activity at 10 µM (Fms(h); [2]) was 94%.

Fc1ccc2ncnc(NCCc3ccc(Cl)cc3)c2c1 [5at, N-[2-(4-Chlorophenyl)Ethyl]-6-Fluoro-4-Quinazolinamine] showed a remaining activity at 10 µM (PAK5(h); [3]) of 86%, a remaining activity at 10 µM (IKKα(h); [3]) of 91% and a remaining activity at 10 µM (CK1α(h); [3]) of 89%. It also gave a remaining activity at 10 µM (ChaK1(h); [3]) of 82%, a remaining activity at 10 µM (CaMKIIδ(h); [3]) of 77% and a remaining activity at 10 µM (ULK2(h); [3]) of 94%. It also gave a remaining activity at 10 µM (PRK1(h); [3]) of 80% and a remaining activity at 10 µM (Fms(h); [3]) of 64%.

Molecule Fc1ccc(CCNc2ncnc3ccc(F)cc23)cc1 [5as, 6-Fluoro-N-[2-(4-Fluorophenyl)Ethyl]-4-Quinazolinamine] has a remaining activity at 10 µM (PAK5(h); [4]) of 85%, a remaining activity at 10 µM (IKKα(h); [4]) of 100% and a remaining activity at 10 µM (CK1α(h); [4]) of 98%. The remaining activity at 10 µM (ChaK1(h); [4]) was 81%, the remaining activity at 10 µM (CaMKIIδ(h); [4]) was 79% and the remaining activity at 10 µM (ULK2(h); [4]) was 93%. It also gave a remaining activity at 10 µM (PRK1(h); [4]) of 72% and a remaining activity at 10 µM (Fms(h); [4]) of 72%.
